Ends that are not written are not given here.
Columns and labels:
[1] = tested on: Thy-1(θ) antigen on mouse bone marrow cells; test: Cytotoxic inhibition test: induction of Thy-1(θ) antigen on bone marrow cells; type: cell-based; details: unfractionated cells, 100 ng/ml, 18 hours
Source text: (§1) Mice of the A/J, C57B1/6J, AKR/J and C58/J strains were purchased from the Jackson Laboratories (Bar Harbon, Me). A.TL-mice were bred at New York University from foundation stock. All mice were housed eight to a cage, and maintained on commercial high protein mouse pellets and acidified water.
(§2) Antibodies to TL antigen were produced by injecting live tumor cells (ASL-1) into A.TL- x C57B1/6J F.1 mice. After five semimonthly injections the animals were bled and the resultant serum pooled, absorbed with A.TL- thymus to remove autoantibodies, and stored in small aliquots at -70° C. […] Anti Thy 1-2 (0-C3H) was produced by injecting AKR/J mice with C58/J thymocytes and absorbing the resultant antiserum with AKR/J thymocytes.
Thymin I and Thymin II were isolated from bovine thymus as described. Each was dissolved in phosphate buffered saline (containing 1 mg/ml of bovine serum albumen to minimize adsorbtive losses), distributed into 2 μg lots and lyophilized. […]
Antisera to either TL or Thy-1 (0) were titered to determine the quantity of antibody which was required to kill 50% of the target cells in a standard suspension. […] The cells were then repelleted by centrifugation and a 0.075 ml aliquot of the supernatant fluid was counted in an automatic gamma spectrometer to determine the amount of Cr^51 released from the target cells. […] The RCI was calculated as follows: [formula]

[2] = tested on: bone marrow cells (least dense BSA gradient fraction); test: Direct cytotoxic test (trypan blue), anti TL antiserum plus complement, bone marrow cells; type: cell-based
Protocol: (§3) Bone marrow cells were obtained from the femoral marrow. Both spleen and marrow cells were teased into single cell suspensions and washed three times in RPMI 1640 medium supplemented with 10 mM Hepes and 100 U/ml of penicillin and 100 μg/ml of streptomycin. The cells were then suspended in the same medium with 10% bovine serum at a concentration of 5.0×10^6 cells/ml. One milliliter of this suspension was incubated with an appropriate dilution of thymin in 16 mm plastic petrie dishes in a humidified atmosphere containing 5% CO2 in air. At the end of the incubation the cells were washed twice and held at 4° C. at a concentration of 5.0×10^6 cells/ml in culture medium until tested for the presence of TL or Thy-1(0).
(§4) Bone marrow and spleen cells were obtained by flotation in BSA gradients similar to those used by Komuro and Boyse (Lancet, 10, 39, 1964). These cells were tested for their susceptibility to anti TL and Thy-1-(0) antibodies in a direct cytotoxicity test, using the uptake of trypan blue as a measure of cell death.

[3] = tested on: neuromuscular transmission; test: Electromyographic assay of neuromuscular transmission in mice after injection; type: in vivo; details: for activity of QAE-Sephadex fractions in producing neuromuscular block: fractions of Example 1, FIG. 3; for dose above which a statistically significant (P < .001) electromyographic decrement was produced / mean decrement: height of the tenth muscle action potential as % of the first: mice; for dose above which a statistically significant (P < .001) electromyographic decrement was produced: five days after dose, supramaximal nerve stimulation at 50 impulses per second; for mean decrement: height of the tenth muscle action potential as % of the first: five days after doses above threshold, 50 impulses per second, controls 94 ± 2%; for active dose range per body weight: test not specified
Protocol: To determine the neuromuscular action of Thymin I and Thymin II, the electromyographic response of mice five days after various doses of Thymin I or Thymin II is summarized in FIG. 4. Bovine serum albumin (0.5 mg/ml, 0.9% saline) was used as a protein stabilizer and controls were injected with the solvent alone.
In 15 control mice sampled at 75 sites the height of the tenth muscle action potential was 94 ± 2% (mean ± s.e.m.) of the height of the first. The mean values and s.e.m. (vertical bars) are shown for groups of 4-10 mice given various doses of Thymin I(o) and Thymin II (.quadrature.). Statistical significances of differences from the controls were calculated by Student's t-test and are shown by solid symbols (P < 0.001), half solid symbols (0.05 > P < 0.001) and open symbols (P > 0.05).
Mice were given 100 ng of Thymin I or solvent and five mice from each group were tested at various times. With supramaximal nerve stimulation at 50 impulses per second the height of the tenth muscle action potential was expressed as a percentage of the first. This change was calculated for five points in each of five to ten mice from each group. For each time point the change in Thymin-treated mice was expressed as a percentage of the change in solvent-treated control mice and the statistical significance of the difference was assessed by Student's t-test. A statistically significant (P < .001) abnormality in the electromyogram was first evident at 18 hours, was maximal at 24 hours and persisted through 5 days.
To make the determinations described in FIGS. 4 and 5, extracts were injected into test animals and neuromuscular transmission was studied after an interval of one to five days. Initially 100 g guinea pigs were injected intraperitoneally; neuromuscular transmission was studied in vitro with a preparation of the phrenic nerve and hemidiaphragm. Subsequently, 200 g rats were used; fractions were injected subcutaneously and neuromuscular transmission was assessed electromyographically. […] Female Swiss-Webster mice weighing 25-35 g were injected intraperitoneally, groups of five to ten mice being used to test each fraction. The animals were anesthetized with urethane and electromyography was performed as described. The muscle action potentials were recorded in each mouse following supramaximal nerve stimulation with ten impulses at a rate of 50 per second. Five sites were sampled in each mouse and for each group of mice the mean standard deviation and s.e.m. were calculated for the change in the height of the muscle action, potential being expressed as a percentage of the height of the first impulse.
The statistical significance of differences found were assessed by student's t-test.

[4] = tested on: TL antigen on mouse bone marrow cells; test: Cytotoxic inhibition test: induction of TL antigen on bone marrow cells; type: cell-based; details: for absorption of anti TL antibody by incubated bone marrow cells: unfractionated cells, 100 ng/ml, 18 hours
Source text: as §1, §2
Thymin I and Thymin II were isolated from bovine thymus as described. Each was dissolved in phosphate buffered saline (containing 1 mg/ml of bovine serum albumen to minimize adsorbtive losses), distributed into 2 μg lots and lyophilized. Each polypeptide was reconstituted in tissue culture medium at the desired concentrations just prior to use.
as §3
ASL-1, a TL positive, Thy 1-2 (0-C3H) positive lymphoma of A strain mice was used as the target cell in all titrations of the antisera used in these experiments, and in the cytotoxic inhibition test to be described below. The lymphoma was maintained by weekly intraperitoneal passage in A/J mice. Lymophoma cells were labelled with Cr^51 and used as target cells in the cytotoxic inhibited test.
Antisera to either TL or Thy-1 (0) were titered to determine the quantity of antibody which was required to kill 50% of the target cells in a standard suspension. The appropriate amount of antiserum was added to each well of a microtiter plate with various dilutions of the cells being tested for their antigen content. The total volume was 0.15 ml. Cells expressing the antigen against which the antiserum was directed absorbed varying amounts of the antibody, and rendered less available to react with the Cr^51 labelled target cells which were added subsequently. The concentration of antibody used was extremely critical to the sensitivity of the test. The antisera to TL or Thy-1 (0) and the cells being tested for their antigen content were incubated together at 4° C. for 90 minutes. After this incubation 50,000 target cells in a volume of […] were added and the incubation continued in the cold for an additional 30 minutes to permit the sensitization of the target cells by the remaining unabsorbed antibody. The plates were then centrifuged at 1,500 rpm for 10 minutes and the supernatant fluid removed. The pelleted cells were resuspended in 0.1 ml or RPMI 1640, containing 4% fresh rabbit serum as a source of complement, and incubated for 45 minutes at 37° C. The cells were then repelleted by centrifugation and a 0.075 ml aliquot of the supernatant fluid was counted in an automatic gamma spectrometer to determine the amount of Cr^51 released from the target cells. All assays were performed in duplicate and the results were expressed by calculating the number of cells required to reduce the relative cytotoxic index (RCI) to 0.5. The RCI was calculated as follows: [formula]

[5] = tested on: spleen cells (least dense BSA gradient fraction); test: Direct cytotoxic test (trypan blue), anti TL antiserum plus complement, spleen cells; type: cell-based, mouse; details: 20 ng/ml for two hours
Protocol: as §3, §4

[6] = Thymin I compared with Thymin II
[7] = single injection of 100 ng per mouse

## GQFLEDPSVLTKEKLKSELVANNVTLPAGEQRKDVYVQLYLQHLTAVKR [Thymin I, H2 -gly-gln-phe-leu-glu-asp-pro-ser-val-leu-thr-lys-glu-lys-leu-lys-ser-glu-leu-val-ala-asn-asn-val-thr-leu-pro-ala-gly-glu-gln-arg-lys-asp-val-tyr-val- gln-leu-tyr-leu-gln-his-leu-thr-ala-val-lys-arg-cooh]
[1]
  absorption of anti Thy-1(θ) antibody by incubated bone marrow cells: absorbed antibodies
[2]; 20 ng/ml for two hours, least dense fraction
  death of bone marrow cells caused by anti TL antiserum plus complement: 21%
[2]; anti TL antiserum plus complement, tissue not specified
  highest cell death values obtained in other experiments: ≤ 28%
[3]; [6]
  relative activity on neuromuscular transmission: slightly more active
[3]
  activity of QAE-Sephadex fractions in producing neuromuscular block: active in producing neuromuscular block
  dose above which a statistically significant (P < .001) electromyographic decrement was produced: above 4 ng/mouse
  mean decrement: height of the tenth muscle action potential as % of the first: 84%
  active dose range per body weight: above 0.1 mg/kg of body weight
[3]; [7]
  time at which abnormality in the electromyogram was maximal: 24 h
  time through which abnormality in the electromyogram persisted: ≥ 5 days
[3]; single injection of 100 ng per mouse, P < .001
  time at which abnormality in the electromyogram was first evident: 18 h
[4]
  active concentration as a fraction of that of the Bach et al. preparation: approximately one thousandth
  absorption of anti TL antibody by incubated bone marrow cells: absorbed antibodies
[4]; [6]
  relative potency in inducing TL and Thy-1(θ) antigens: slightly more potent
[4]; bone marrow cells
  concentration giving maximal induction of TL and Thy-1(θ) antigens: 2 ng/mL
  lowest concentration producing a measurable (detectable) response: 20 pg/mL
[5]
  death of spleen cells caused by anti TL antiserum plus complement: 18%

## H2 n-ser-gln-phe-leu-glu-asp-pro-ser-val-leu-thr-lys-glu-lys-leu-lys-ser-glu- leu-val-ala-asn-asn-val-thr-leu-pro-ala-gly-glu-gln-arg-lys-asp-val-tyr-val-gln-leu-tyr-leu-gln-thr-leu-thr-ala-val-lys-arg-cooh [Thymin II]
[1]
  absorption of anti Thy-1(θ) antibody by incubated bone marrow cells: absorbed antibodies
[3]
  activity of QAE-Sephadex fractions in producing neuromuscular block: active in producing neuromuscular block
  dose above which a statistically significant (P < .001) electromyographic decrement was produced: above 32 ng/mouse
  mean decrement: height of the tenth muscle action potential as % of the first: 82%
  active dose range per body weight: above 0.1 mg/kg of body weight
[4]
  absorption of anti TL antibody by incubated bone marrow cells: absorbed antibodies
